“And” between values parts separate entries of the source, which are not always exact repeats. Identical values can stand only once. Like-named read-outs stand apart in the source and are kept apart here.
Key:
HEK293a SHH+ cells = assay: MTS assay, cytotoxicity (72 h); type: cell-based; settings: for decrease in cell viability / cell survival: 12.5 μM
Outline: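 Cells plated at 5000/well, cultured 24 h, then exposed to analogues (0.14–100 μM final) in DMEM/10% FBS for 72 h. MTS/PMS added for 3 h at 37 °C and absorbance read at 490 nm; data normalised to DMSO vehicle and puromycin (2 μg/mL) wells, curves fitted with a variable-slope sigmoidal model.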

[1] = system: Caco-2 human colon carcinoma cell line; assay: Caco-2 permeability assay; type: in vitro ADME
Experimental: (§1) Apparent permeability (Papp) was determined in the Caco-2 human colon carcinoma cell line. Cells were maintained in DMEM containing 10% fetal bovine serum, penicillin and streptomycin in a humidified atmosphere with 5% CO2 for 10 days. Cells were plated onto a cell culture assembly plate (Millipore, UK) and monolayer confluency was checked using a TEER electrode prior to the assay. Medium was washed off and replaced in the appropriate apical and basal wells with HBSS buffer (pH 7.4) containing compounds (10 μM, 1% DMSO). The Caco-2 plate was incubated for 2 h at 37 °C, and Lucifer yellow was used to confirm membrane integrity postassay. […] Papp was determined as follows: [drawing 1] where Vr = volume of receptical; A = surface area of monolayer; C0 = Initial compound concentration in donor.

[2] = Caco-2 permeability assay; type: in vitro ADME, human; settings: human; for Papp A→B at 2 h, 10 μM / Papp B→A at 2 h, 10 μM / recovery at 2 h, 10 µM: Caco-2, pH 7.4, 10 µM; for efflux ratio at 2 h, 10 µM: Caco-2, pH 7.4, read-out: Caco-2 Eflux Ratio (B>A/A>B)
Experimental: as §1

[3] = PAMPA parallel artificial membrane permeability assay; settings: for recovery at 16 h, 10 µM / Papp at 16 h, 10 μM: PAMPA
Experimental: Passive diffusion was estimated using the PAMPA method. […] The donor plate was a MultiScreen-IP Plate with 0.45 μm hydrophobe Immobilon-P Membrane (Millipore, #MAIPNTR10) and the acceptor plate was a MultiScreen 96-well Transport Receiver Plate (Millipore, #MATRNPS50). […] Acceptor pH was 7.4. All samples were analyzed against an external, matrix-matched, standard curve by LC-MS/MS with a Waters (Elstree, Herts. UK) Acquity H-class LC system coupled to a Waters TQ-S mass spectrometer. Permeability values (cm/s) were calculated using the following equation: [drawing 2] and VD = volume of donor; VA = volume of acceptor; area = surface area of the membrane · porosity.

[4] = Microsomal incubations, mouse liver microsomes; type: in vitro ADME; settings: 1 μM
Experimental: (§2) Metabolic stability assays were performed using a Microlab Star liquid handling workstation (Hamilton Robotics, Bonaduz, Switzerland). Test compounds (1 μM, 1% DMSO) were preincubated at 37 °C for 10 min in 0.5 mg/mL female CD1 mouse and mixed gender human liver microsomes in 10 mM phosphate buffered saline (PBS; Sigma-Aldrich Company Ltd. (Dorset, UK)). Microsomes were purchased either from Sekisui XenoTech, LLC (Kansas City, USA) or BioreclamationIVT (Frankfurt Am Main, Germany). Reactions were initiated by the addition of NADPH (final concentration 1 mM). At 0, 15, and 30 min, aliquots were removed from each incubation and quenched in 3 volumes of ice-cold methanol containing olomoucine (Sigma-Aldrich, Dorset, UK) as an internal standard. […] The percentage metabolized was calculated by comparing peak area ratio (peak area test compound/peak area of internal standard) at t = 15 and 30 min versus t = 0 min.

[5] = Microsomal incubations, human liver microsomes; type: in vitro ADME; settings: 1 μM
Experimental: as §2

HHAT = molecular target: HHAT; parameters: method as in PMID 34890564, PMID 33768725; settings: read-out: Ki, competitive inhibitor of Pal-CoA; cited from earlier work
[6] = + Verapamil (P-glycoprotein inhibitor)
[7] = + Verapamil (P-glycoprotein inhibitor), read-out: Caco-2 A>B Recovery
[8] = + Verapamil (P-glycoprotein inhibitor), read-out: Caco-2 B>A Recovery
[9] = without Verapamil, read-out: Caco-2 A>B Recovery
[10] = without Verapamil, read-out: Caco-2 B>A Recovery
[11] = pH 5, PAMPA Papp pH 5, donor pH 5, 10 µM
[12] = pH 5, PAMPA Permeability Class pH 5, donor pH 5, 10 µM
[13] = pH 6.5, PAMPA Papp pH 6.5, donor pH 6.5, 10 µM
[14] = pH 6.5, PAMPA Permeability Class pH 6.5, donor pH 6.5, 10 µM
[15] = pH 7.4, PAMPA Papp pH 7.4, donor pH 7.4, 10 µM
[16] = pH 7.4, PAMPA Permeability Class pH 7.4, donor pH 7.4, 10 µM

Row | Compound | Papp A→B at 2 h, 10 μM [2, 6] [×10⁻⁶ cm/s] | Papp B→A at 2 h, 10 μM [2, 6] [×10⁻⁶ cm/s] | recovery at 2 h, 10 µM [2, 7] [%] | recovery at 2 h, 10 µM [2, 8] [%] | Papp A→B at 2 h, 10 μM ([2]; without Verapamil) [×10⁻⁶ cm/s] | Papp B→A at 2 h, 10 μM ([2]; without Verapamil) [×10⁻⁶ cm/s] | recovery at 16 h, 10 µM ([3]; pH 5) [%] | Papp at 16 h, 10 μM [3, 11] [×10⁻⁶ cm/s] | Papp at 16 h, 10 μM [3, 12] [×10⁻⁶ cm/s] | recovery at 16 h, 10 µM ([3]; pH 6.5) [%] | Papp at 16 h, 10 μM [3, 13] [×10⁻⁶ cm/s] | Papp at 16 h, 10 μM [3, 14] [×10⁻⁶ cm/s] | recovery at 16 h, 10 µM ([3]; pH 7.4) [%] | Papp at 16 h, 10 μM [3, 15] [×10⁻⁶ cm/s] | Papp at 16 h, 10 μM [3, 16] [×10⁻⁶ cm/s] | MLM % metabolized after 15 min [4] | MLM % metabolized after 30 min [4] [%] | HLM % metabolized after 15 min [5] [%] | HLM % metabolized after 30 min [5] [%] | decrease in cell viability / cell survival (HEK293a SHH+ cells) [%] | further results
1 | C=CCNCC(=O)N1CCc2sccc2C1COc1ccc(Cl)cc1 (stereo not shown) [Compound 2] | 8.3 ± 0.9 | 12.5 ± 1.9 | 41.1 ± 1 | 51.6 ± 1 | 14.5 ± 0.4 | 12.4 ± 2.1 | < 31 | < 1.5 | < 5 | < 10 | 10.9 | 5 to 20 | < 10 | 20.4 | > 20 | 90.8% and > 90% | 98.4 | 43.0 | 69.5 | 44 | Caco-2 efflux [1]: no detectable efflux; Caco-2 permeability [1]: moderate-high permeability; recovery at 2 h, 10 µM [2, 9]: 56.7 ± 1.9%; recovery at 2 h, 10 µM [2, 10]: 87.8 ± 1.2%; efflux ratio at 2 h, 10 µM [2]: 0.86; PAMPA passive permeability ([3]; pH 7.4): high passive permeability
2 | CC(=O)N1CCc2sccc2C1c1ccccc1 (stereo not shown) [Compound 5] | – | – | – | – | – | – | 95 | > 200 | > 20 | 98 | 117 | > 20 | 91 | > 200 | > 20 | 99.5% and > 90% | 99.4 | 52.5 | 64.3 | < 30 | PAMPA permeability ([3]; over the full pH range tested): high permeability; PAMPA passive permeability ([3]; pH 7.4): high passive permeability
3 | CCC(C)CNCC(=O)N1CCc2sccc2C1c1cccc(C)c1 (stereo not shown) [Compound 17] | 14.2 ± 0.8 | 19.8 ± 2 | 58.6 ± 0.9 | 66.6 ± 1.9 | 17 ± 2.5 | 17.4 ± 4.1 | < 31 | < 0.7 | < 5 | < 10 | < 9.7 | 5 to 20 | < 10 | < 4.5 | < 5 | 99.5% and > 90% | 100.0 | 44.4 | 66.7 | – | toxicity to HEK293a SHH+ cells (HEK293a SHH+ cells): toxic; recovery at 2 h, 10 µM [2, 9]: 60.5 ± 2.4%; recovery at 2 h, 10 µM [2, 10]: 80.4 ± 2.2%; efflux ratio at 2 h, 10 µM [2]: 1.02

Now from value to compound, other results behind:

Row | Papp A→B at 2 h, 10 μM [2, 6] [×10⁻⁶ cm/s] | Papp B→A at 2 h, 10 μM [2, 6] [×10⁻⁶ cm/s] | recovery at 2 h, 10 µM [2, 7] [%] | recovery at 2 h, 10 µM [2, 8] [%] | Papp A→B at 2 h, 10 μM ([2]; without Verapamil) [×10⁻⁶ cm/s] | Papp B→A at 2 h, 10 μM ([2]; without Verapamil) [×10⁻⁶ cm/s] | recovery at 16 h, 10 µM ([3]; pH 5) [%] | Papp at 16 h, 10 μM [3, 11] [×10⁻⁶ cm/s] | Papp at 16 h, 10 μM [3, 12] [×10⁻⁶ cm/s] | recovery at 16 h, 10 µM ([3]; pH 6.5) [%] | Papp at 16 h, 10 μM [3, 13] [×10⁻⁶ cm/s] | Papp at 16 h, 10 μM [3, 14] [×10⁻⁶ cm/s] | recovery at 16 h, 10 µM ([3]; pH 7.4) [%] | Papp at 16 h, 10 μM [3, 15] [×10⁻⁶ cm/s] | Papp at 16 h, 10 μM [3, 16] [×10⁻⁶ cm/s] | MLM % metabolized after 15 min [4] | MLM % metabolized after 30 min [4] [%] | HLM % metabolized after 15 min [5] [%] | HLM % metabolized after 30 min [5] [%] | Compound | decrease in cell viability / cell survival (HEK293a SHH+ cells) [%] | further results
4 | 35.5 ± 2 | 22.7 ± 3.3 | 70 ± 2.5 | 75.7 ± 2 | 39.2 ± 0.7 | 29.7 ± 0.2 | < 65 | < 0.4 | < 5 | < 23 | 13 | 5 to 20 | < 15 | 42.4 | > 20 | 98.1% and > 90% | 99.7 | 36.9 | 56.2 | CCC(C)CNCC(=O)N1CCc2sccc2C1c1cccc(C)n1 (stereo not shown) [Compound 22] | – | Caco-2 efflux [1]: no detectable efflux; Caco-2 permeability [1]: moderate-high permeability; recovery at 2 h, 10 µM [2, 9]: 88.7 ± 0.1%; recovery at 2 h, 10 µM [2, 10]: 108 ± 3.1%; efflux ratio at 2 h, 10 µM [2]: 0.76; PAMPA passive permeability ([3]; pH 7.4): high passive permeability
5 | – | – | – | – | – | – | – | – | – | – | – | – | – | – | – | > 90% and 95.5% | 99.7 | 28.8 | 36.9 | Cc1cccc([C@H]2c3ccsc3CCN2C(=O)CNCC(C)C)n1 [Compound 30] | < 30 | Ki (HHAT): 38 nM; CC50 (HEK293a SHH+ cells; 72 h, read-out: MTS Assay (HEK293a SHH+) CC50 (CI95)): > 100000 nM

From PMC10823475, “Design, Synthesis, and Evaluation of Inhibitors of Hedgehog Acyltransferase” (Journal of Medicinal Chemistry, 2024)
